Test results from paper PMC10563062 (2023).

Tested on: d(AAGGG)4 (DNA, G4) AAGGGAAGGGAAGGGAAGGG
Assay: UV-vis absorption titration (Soret band); CD
Conditions: 100 mM KCl; 10 mM Tris-HCl, 0.1 mM EDTA, pH 7.4; 7 μM TMPyP4; 68% hypochromicity, 16 nm red shift

In the case of C[n+]1ccc(-c2c3nc(c(-c4cc[n+](C)cc4)c4ccc([nH]4)c(-c4cc[n+](C)cc4)c4nc(c(-c5cc[n+](C)cc5)c5ccc2[nH]5)C=C4)C=C3)cc1, the binding is reported as “yes”.
